Data published in ChEMBL document CHEMBL1201862, “PubChem BioAssay data set” (2004).
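Each compound was tested at five concentrations against cells in 96-well plates for 48 hours. GI50 marks 50% less growth.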 Active and inactive are the calls of the source. Rule as the data show it: active = GI50 up to about 1.1 µM and inactive = higher.

Assays:
Experiment in all cases: NCI anticancer screen, dose series, 48 h
CCRF-CEM = test system: CCRF-CEM
DLD-1 = test system: DLD-1
HCT-116 = test system: HCT-116
HOP-62 = test system: HOP-62
IGROV-1 = test system: IGROV-1
M14 = test system: M14
M19-MEL = test system: M19-MEL
Malme-3M = test system: Malme-3M
OVCAR-4 = test system: OVCAR-4
OVCAR-5 = test system: OVCAR-5
OVCAR-8 = test system: OVCAR-8
RXF 393 = test system: RXF 393
SF-539 = test system: SF-539
SK-MEL-2 = test system: SK-MEL-2
TK-10 = test system: TK-10
U-251 = test system: U-251
UACC-62 = test system: UACC-62
XF498 = test system: XF498
LOX IMVI = test system: LOX IMVI
MCF7 = test system: MCF7

Measured: GI50

C=CCN1/C(=C(\C#N)c2nc3ccccc3[nH]2)Sc2c1nc[nH]c2=O
inactive: CCRF-CEM > 100 µM | DLD-1 > 100 µM | HCT-116 > 100 µM | HOP-62 > 100 µM | IGROV-1 > 100 µM | M14 > 100 µM | M19-MEL > 100 µM | Malme-3M > 100 µM | OVCAR-4 > 100 µM | OVCAR-5 > 100 µM | OVCAR-8 > 100 µM | RXF 393 6.68 µM | SF-539 > 100 µM | SK-MEL-2 > 100 µM | TK-10 > 100 µM | U-251 80.5 µM | UACC-62 > 100 µM | XF498 > 100 µM

CCOC(=O)C1=C(C)N(C2OC(COC(=O)c3ccccc3)C(OC(=O)c3ccccc3)C2OC(=O)c2ccccc2)C(=S)NC1c1ccccc1 (stereo unspecified)
inactive: CCRF-CEM 23.1 µM | DLD-1 38.9 µM | HCT-116 29.9 µM | HOP-62 > 100 µM | IGROV-1 46.8 µM | LOX IMVI 58.9 µM | M14 25.7 µM | M19-MEL 33.1 µM | Malme-3M 25.5 µM | OVCAR-4 29.4 µM | OVCAR-5 61.7 µM | OVCAR-8 44.4 µM | SF-539 54.8 µM | SK-MEL-2 64.3 µM | U-251 34.9 µM | UACC-62 29.3 µM

O=C1C(Cl)N(c2cccc(Cl)c2)C1c1c[nH]c2ccccc12 (stereo unspecified)
inactive: CCRF-CEM > 100 µM | HCT-116 > 100 µM | HOP-62 > 100 µM | IGROV-1 > 100 µM | M14 > 100 µM | M19-MEL > 100 µM | Malme-3M > 100 µM | OVCAR-4 > 100 µM | OVCAR-8 > 100 µM | RXF 393 > 100 µM | SF-539 > 100 µM | SK-MEL-2 > 100 µM | TK-10 > 100 µM | U-251 > 100 µM | UACC-62 > 100 µM | XF498 > 100 µM

O=C(/C=C/c1cccc2ccccc12)c1ccccc1Cl
inactive: CCRF-CEM 3.72 µM | DLD-1 7.89 µM | HCT-116 8.95 µM | HOP-62 18.6 µM | IGROV-1 16.6 µM | M14 15.5 µM | Malme-3M 16.4 µM | OVCAR-4 15.1 µM | OVCAR-8 13.6 µM | RXF 393 16.7 µM | SF-539 17.5 µM | SK-MEL-2 19.3 µM | TK-10 14.6 µM | U-251 11.6 µM | UACC-62 14.1 µM | XF498 7.59 µM

Cc1ccc(NC(=O)CC(=O)n2nc(-c3ccccc3)c(/N=N/c3ccccc3Cl)c2-c2ccccc2)cc1
inactive: CCRF-CEM 41.4 µM | DLD-1 > 10 µM | HCT-116 39.5 µM | HOP-62 83.8 µM | IGROV-1 > 10 µM | LOX IMVI 92.5 µM | M14 88.3 µM | M19-MEL > 10 µM | Malme-3M 48.3 µM | OVCAR-4 26.5 µM | OVCAR-5 19.4 µM | OVCAR-8 42.5 µM | SF-539 76.6 µM | SK-MEL-2 > 10 µM | TK-10 83.9 µM | U-251 60.8 µM | UACC-62 45.4 µM | XF498 49 µM

CN1NC(c2ccccc2)=C(C#N)C(=O)CC1c1ccc(Br)cc1 (stereo unspecified)
inactive: DLD-1 26.1 µM | HCT-116 36.8 µM | HOP-62 21.4 µM | LOX IMVI 35.4 µM | M14 20.9 µM | Malme-3M 23.3 µM | OVCAR-4 45.6 µM | OVCAR-5 25.5 µM | RXF 393 36.6 µM | SK-MEL-2 28.3 µM | TK-10 75.3 µM | U-251 > 10 µM | XF498 28.6 µM

O=C1NC2=C(CCCC/C2=N\O)C12CCCCC2
inactive: DLD-1 > 100 µM | HCT-116 > 100 µM | HOP-62 > 100 µM | IGROV-1 > 100 µM | LOX IMVI > 100 µM | M14 > 100 µM | M19-MEL > 100 µM | Malme-3M > 100 µM | OVCAR-4 > 100 µM | OVCAR-5 > 100 µM | RXF 393 > 100 µM | SF-539 > 100 µM | TK-10 > 100 µM | U-251 > 100 µM | UACC-62 > 100 µM | XF498 > 100 µM

COc1cc(/C=C/C(=O)C(C)(C)C)cc(OC)c1OC
inactive: CCRF-CEM 33.2 µM | DLD-1 37.9 µM | HCT-116 29.9 µM | HOP-62 > 100 µM | LOX IMVI 19.7 µM | M14 33.3 µM | M19-MEL 31.8 µM | Malme-3M 71.8 µM | OVCAR-4 14.8 µM | OVCAR-5 > 100 µM | OVCAR-8 33.4 µM | RXF 393 28.4 µM | SF-539 33.3 µM | SK-MEL-2 32.7 µM | TK-10 > 100 µM | U-251 37.8 µM | UACC-62 36.9 µM | XF498 82 µM

COC(=O)C12CC3CC(CC(C(=O)O)(C3)C1)C2
inactive: CCRF-CEM > 100 µM | HCT-116 > 100 µM | HOP-62 > 100 µM | IGROV-1 > 100 µM | LOX IMVI > 100 µM | M14 > 100 µM | M19-MEL > 100 µM | OVCAR-4 > 100 µM | OVCAR-5 > 100 µM | OVCAR-8 > 100 µM | SF-539 > 100 µM | TK-10 > 100 µM | U-251 > 100 µM | UACC-62 > 100 µM | XF498 > 100 µM

CC(=O)O[C@]12CCCCCC1C1(O)C(O)CCCC[C@H]12 (stereo partly specified)
inactive: CCRF-CEM > 100 µM | HOP-62 > 100 µM | LOX IMVI > 100 µM | M14 > 100 µM | M19-MEL > 100 µM | Malme-3M > 100 µM | OVCAR-4 > 100 µM | OVCAR-8 > 100 µM | RXF 393 > 100 µM | SK-MEL-2 > 100 µM | TK-10 > 100 µM | U-251 > 100 µM | UACC-62 > 100 µM | XF498 > 100 µM

O=C(O)Cc1cccc2c1Oc1ccccc1S2
inactive: CCRF-CEM > 100 µM | DLD-1 > 100 µM | HCT-116 > 100 µM | HOP-62 > 100 µM | IGROV-1 > 100 µM | LOX IMVI > 100 µM | M14 > 100 µM | M19-MEL > 100 µM | Malme-3M > 100 µM | OVCAR-4 > 100 µM | OVCAR-8 > 100 µM | RXF 393 > 100 µM | SF-539 > 100 µM | SK-MEL-2 > 100 µM | TK-10 > 100 µM | U-251 > 100 µM | UACC-62 > 100 µM

C[C@]12CCC(=O)C(O)=C1CC[C@@H]1[C@@H]2CC[C@]2(C)C(=O)CC[C@@H]12 [FORMESTANE]
inactive: CCRF-CEM > 100 µM | DLD-1 > 100 µM | HCT-116 > 93.1 µM | HOP-62 > 100 µM | IGROV-1 > 100 µM | LOX IMVI > 100 µM | M14 > 100 µM | MCF7 > 100 µM | Malme-3M > 100 µM | OVCAR-4 > 100 µM | OVCAR-5 > 100 µM | OVCAR-8 > 100 µM | RXF 393 > 100 µM | SF-539 > 100 µM | SK-MEL-2 > 100 µM | TK-10 > 100 µM | U-251 > 100 µM | UACC-62 > 100 µM | XF498 88.1 µM
